# Test results taken from ChEMBL document CHEMBL5321256, “Tolypocaibols: Antibacterial Lipopeptaibols from a Tolypocladium sp. Endophyte of the Marine Macroalga Spongomorpha arcta” (2023).
# Square brackets hold non-standard residues; d marks the D form. Peptide text beside a SMILES is read from it. * marks the point of attachment. Pro(4S-Me) = C[C@@H]1CN[C@H](C(=O)O)C1; Decanoyl = CCCCCCCCCC(=O)*; Valol = CC(C)[C@@H](CO)N*; Aib = CC(C)(N)C(=O)O
# Key:
# Type in all cases: functional
# [1] = test system: Staphylococcus epidermidis; test: Antibacterial activity against Staphylococcus epidermidis measured after 18 to 20 hrs by broth microdilution method; conditions: time 18-20 hrs
# [2] = test system: Salmonella enterica; test: Antibacterial activity against Salmonella enterica measured after 18 to 20 hrs by broth microdilution method; conditions: time 18-20 hrs
# [3] = test system: Klebsiella pneumoniae; test: Antibacterial activity against Klebsiella pneumoniae measured after 18 to 20 hrs by broth microdilution method; conditions: time 18-20 hrs
# [4] = test system: Staphylococcus aureus; test: Antibacterial activity against methicillin-susceptible Staphylococcus aureus measured after 18 to 20 hrs by broth microdilution method; conditions: time 18-20 hrs
# [5] = test system: Yersinia pseudotuberculosis; test: Antibacterial activity against Yersinia pseudotuberculosis measured after 18 to 20 hrs by broth microdilution method; conditions: time 18-20 hrs
# [6] = test system: Escherichia coli; test: Antibacterial activity against Escherichia coli measured after 18 to 20 hrs by broth microdilution method; conditions: time 18-20 hrs
# [7] = test system: Mycolicibacterium smegmatis; test: Antibacterial activity against Mycobacterium smegmatis ATCC 70084 by resazurin microplate assay
# [8] = test system: Enterococcus faecalis; test: Antibacterial activity against Enterococcus faecalis measured after 18 to 20 hrs by broth microdilution method; conditions: time 18-20 hrs
# [9] = test system: Klebsiella aerogenes; test: Antibacterial activity against Klebsiella aerogenes measured after 18 to 20 hrs by broth microdilution method; conditions: time 18-20 hrs
# [10] = test system: Vibrio cholerae; test: Antibacterial activity against Vibrio cholerae measured after 18 to 20 hrs by broth microdilution method; conditions: time 18-20 hrs
# [11] = test system: Enterococcus faecium; test: Antibacterial activity against Enterococcus faecium measured after 18 to 20 hrs by broth microdilution method; conditions: time 18-20 hrs
# [12] = test system: Pseudomonas aeruginosa; test: Antibacterial activity against Pseudomonas aeruginosa measured after 18 to 20 hrs by broth microdilution method; conditions: time 18-20 hrs
# [13] = test system: Listeria ivanovii; test: Antibacterial activity against Listeria ivanovii ATCC BAA-139 measured after 18 to 20 hrs by broth microdilution method; conditions: time 18-20 hrs
# [14] = test system: Staphylococcus aureus; test: Antibacterial activity against methicillin-resistant Staphylococcus aureus measured after 18 to 20 hrs by broth microdilution method; conditions: time 18-20 hrs
# [15] = test system: Brucella anthropi; test: Antibacterial activity against Ochrobactrum anthropi measured after 18 to 20 hrs by broth microdilution method; conditions: time 18-20 hrs
# [16] = test system: Providencia alcalifaciens; test: Antibacterial activity against Providencia alcalifaciens measured after 18 to 20 hrs by broth microdilution method; conditions: time 18-20 hrs
# [17] = test system: Mycobacterium tuberculosis; test: Antibacterial activity against Mycobacterium tuberculosis ATCC 25177 by resazurin microplate assay
# [18] = test system: Shigella sonnei; test: Antibacterial activity against Shigella sonnei measured after 18 to 20 hrs by broth microdilution method; conditions: time 18-20 hrs
# [19] = test system: Bacillus subtilis; test: Antibacterial activity against Bacillus subtilis measured after 18 to 20 hrs by broth microdilution method; conditions: time 18-20 hrs
smiles,measurement,setting,value
C=C[C@@H]1C[C@H](C)C[C@H](C)[C@H]1c1c(O)ccn(O[C@@H]2C(C(=O)OC)=C[C@@H](O)[C@@H](O)[C@H]2O)c1=O,MIC,[1],128 µM
same,MIC,[2],128 µM
same,MIC,[3],> 128 µM
same,MIC,[4],128 µM
same,MIC,[5],128 µM
same,MIC,[6],128 µM
same,MIC,[7],> 250 µM
same,MIC,[8],128 µM
same,MIC,[9],> 128 µM
same,MIC,[10],128 µM
same,MIC,[11],128 µM
same,MIC,[12],> 128 µM
same,MIC,[13],16 µM
same,MIC,[14],128 µM
same,MIC,[15],128 µM
same,MIC,[16],128 µM
same,MIC,[17],250 µM
same,MIC,[18],128 µM
same,MIC,[19],128 µM
CCCCCCCCCC(=O)NC(C)(C)C(=O)N1CCC[C@H]1C(=O)N[C@@H](Cc1ccccc1)C(=O)NC(C)(C)C(=O)N[C@@H](CCC(N)=O)C(=O)N[C@@H](CCC(N)=O)C(=O)NC(C)(C)C(=O)NC(C)(C)C(=O)N[C@@H](CCC(N)=O)C(=O)N[C@@H](CC(C)C)C(=O)N[C@H](CO)C(C)C (Decanoyl-[Aib]PF[Aib]QQ[Aib][Aib]QL-Valol),MIC,[1],> 128 µM
same,MIC,[2],> 128 µM
same,MIC,[3],> 128 µM
same,MIC,[4],8 µM
same,MIC,[5],> 128 µM
same,MIC,[6],> 128 µM
same,MIC,[7],80 µM
same,MIC,[8],32 µM
same,MIC,[9],> 128 µM
same,MIC,[10],> 128 µM
same,MIC,[11],32 µM
same,MIC,[12],> 128 µM
same,MIC,[13],8 µM
same,MIC,[14],16 µM
same,MIC,[15],> 128 µM
same,MIC,[16],> 128 µM
same,MIC,[17],20 µM
same,MIC,[18],> 128 µM
same,MIC,[19],8 µM
CCCCCCCCCC(=O)NC(C)(C)C(=O)N1C[C@@H](C)C[C@H]1C(=O)N[C@@H](Cc1ccccc1)C(=O)NC(C)(C)C(=O)N[C@@H](CCC(N)=O)C(=O)N[C@@H](CCC(N)=O)C(=O)NC(C)(C)C(=O)NC(C)(C)C(=O)N[C@@H](CCC(N)=O)C(=O)N[C@@H](CC(C)C)C(=O)N[C@H](CO)C(C)C (Decanoyl-[Aib][Pro(4S-Me)]F[Aib]QQ[Aib][Aib]QL-Valol),MIC,[1],> 128 µM
same,MIC,[2],> 128 µM
same,MIC,[3],> 128 µM
same,MIC,[4],4 µM
same,MIC,[5],> 128 µM
same,MIC,[6],> 128 µM
same,MIC,[7],80 µM
same,MIC,[8],16 µM
same,MIC,[9],> 128 µM
same,MIC,[10],> 128 µM
same,MIC,[11],16 µM
same,MIC,[12],> 128 µM
same,MIC,[13],8 µM
same,MIC,[14],16 µM
same,MIC,[15],> 128 µM
same,MIC,[16],> 128 µM
same,MIC,[17],40 µM
same,MIC,[18],> 128 µM
same,MIC,[19],4 µM
O=C(O)c1cn(C2CC2)c2cc(N3CCNCC3)c(F)cc2c1=O [CIPROFLOXACIN],MIC,[1],1.33 µM
same,MIC,[2],0.05 µM
same,MIC,[3],2 µM
same,MIC,[5],0.14 µM
same,MIC,[6],0.17 µM
same,MIC,[7],3.8 µM
same,MIC,[8],1 µM
same,MIC,[9],2.83 µM
same,MIC,[10],0.02 µM
same,MIC,[11],0.67 µM
same,MIC,[12],0.5 µM
same,MIC,[13],8 µM
same,MIC,[14],64 µM
same,MIC,[15],0.83 µM
same,MIC,[16],0.13 µM
same,MIC,[18],0.08 µM
same,MIC,[19],0.38 µM
CO[C@H]1/C=C/O[C@@]2(C)Oc3c(C)c(O)c4c(O)c(c(/C=N/N5CCN(C)CC5)c(O)c4c3C2=O)NC(=O)/C(C)=C\C=C\[C@H](C)[C@H](O)[C@@H](C)[C@@H](O)[C@@H](C)[C@H](OC(C)=O)[C@@H]1C [RIFAMPIN],MIC,[1],0.02 µM
same,MIC,[2],2 µM
same,MIC,[3],16 µM
same,MIC,[4],0.01 µM
same,MIC,[5],10.7 µM
same,MIC,[6],4 µM
same,MIC,[8],1 µM
same,MIC,[9],8 µM
same,MIC,[10],> 128 µM
same,MIC,[11],21.3 µM
same,MIC,[12],53.3 µM
same,MIC,[13],0.02 µM
same,MIC,[14],2 µM
same,MIC,[15],4 µM
same,MIC,[16],8 µM
same,MIC,[17],0.062 µM
same,MIC,[18],1.67 µM
same,MIC,[19],0.19 µM
